{"source": "patent US20050148671A1", "about": "“(2S)-amino(phenyl)acetic acid and derivatives as alpha2delta voltage-gated calcium channel ligands” (priority 2004, published 2005)", "tested_on": "mechanical allodynia in spinal nerve ligated rats", "assay": "Determination of analgesic effect: mechanical allodynia (von Frey) after L5/L6 spinal nerve ligation", "conditions": "oral, in PEG400, 60 minutes before von Frey testing; percentage of maximal protective effect relative to vehicle; male Sprague Dawley rats", "source_text": "Male Sprague Dawley rats (80-100 g) were purchased from Charles River (Portage, Mich.). Prior to surgery, animals were group-housed and maintained in a temperature regulated environment (lights on between 7:00 a.m. and 8:00 p.m.). Following nerve ligation surgery, animals were group housed. Two weeks after surgery, experimentation began. Rats had access to food and water ad libitum.\nBriefly, an incision was made on the dorsal portion of the hip and the muscle was blunt dissected to reveal the spinal processes. The L6 transverse process was removed, and the left L5 and L6 spinal nerves were tightly ligated with a 5.0 braided silk suture. The wound was cleaned, the membrane sewn with a 4.0 dissolvable Vicryl suture and the skin closed with wound clips.\nFor the assessment of neuropathic pain, mechanical allodynia in the affected paw of animals that had undergone spinal nerve ligation was evaluated using von Frey filaments. […] Using the Dixons Up-Down method, a baseline level of allodynia was determined to have a withdrawal threshold of 3 g of pressure.\nRats were placed in groups labeled A-D with six rats per group. Group A was administered 1.0 mL/kg of vehicle (100% PEG400). […] Data are expressed as the percentage of maximal protective effect relative to the control (vehicle treated) animals."}
{"compound": "N[C@H](C(=O)O)c1ccccc1", "note": "[(2S)-amino(phenyl)acetic acid]", "values": [{"measurement": "EC50", "result": 50, "unit": "µmol/kg"}]}
{"compound": "NCC1(CC(=O)O)CCCCC1", "note": "[Gabapentin]", "values": [{"measurement": "EC50", "result": 160, "unit": "µmol/kg"}]}
